{
  "source": "paper PMC9090415",
  "about": "“Discovery of small molecule inhibitors of Plasmodium falciparum apicoplast DNA polymerase” (Journal of Enzyme Inhibition and Medicinal Chemistry, 2022)",
  "target": "P. falciparum apicoplast DNA polymerase (Pf-apPOL) (Plasmodium falciparum, UniProt Q8ILY1)",
  "sequence (Q8ILY1 entry or part of it)": "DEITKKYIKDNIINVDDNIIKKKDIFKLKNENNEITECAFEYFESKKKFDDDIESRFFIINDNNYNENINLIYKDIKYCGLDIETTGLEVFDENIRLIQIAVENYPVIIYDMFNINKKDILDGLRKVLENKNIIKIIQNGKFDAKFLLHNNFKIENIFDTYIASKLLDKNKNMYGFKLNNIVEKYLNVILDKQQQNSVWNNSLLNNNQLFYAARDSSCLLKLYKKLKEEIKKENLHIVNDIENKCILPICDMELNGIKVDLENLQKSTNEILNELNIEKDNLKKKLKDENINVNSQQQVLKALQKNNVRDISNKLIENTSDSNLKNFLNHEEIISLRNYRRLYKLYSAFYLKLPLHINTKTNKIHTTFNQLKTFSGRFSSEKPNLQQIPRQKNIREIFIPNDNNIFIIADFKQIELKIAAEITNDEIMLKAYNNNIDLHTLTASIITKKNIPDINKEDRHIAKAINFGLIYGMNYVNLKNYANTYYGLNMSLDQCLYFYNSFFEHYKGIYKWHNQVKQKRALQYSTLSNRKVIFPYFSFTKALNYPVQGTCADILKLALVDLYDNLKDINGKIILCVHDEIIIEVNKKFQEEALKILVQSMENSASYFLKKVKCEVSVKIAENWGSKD",
  "test": "Fluorescence-based high-throughput DNA polymerase assay (molecular beacon), primary screen and dose-response",
  "format": "biochemical",
  "protocol": "The HT assay employs a molecular beacon, a stem-loop DNA template with a Cy3 dye and the Black Hole Quencher on the 3′ and 5′ ends of the DNA, respectively. Pf-apPOL concentration is based on a calculated absorptivity of ε280 = 56750 M^−1 cm^−1. Reactions were carried out at 25 °C, using Corning 3575 […] (well-volume, 20 µL). Assays testing for compound inhibition composed of reaction buffer (pH 7.9 in 50 mM potassium acetate, 20 mM Tris-acetate and 10 mM magnesium acetate), Pf-apPOL (20 nM), DNA substrate (20 nM), dNTPs (6 µM), and compound (10 µM in DMSO). The DNA and nucleotide substrates (dNTPs) were at concentrations of 20 nM and 6 µM, respectively, in the assay. Pf-apPOL was incubated in the reaction buffer with dNTPs and the compound of interest (10 µM, in the assay) at 25 °C for 10 min. The DNA substrate was then added and the reaction was allowed to proceed for 90 min at 25 °C.\nEach assay plate contained 16 negative controls (no Pf-apPOL, DMSO present) and 16 positive controls (Pf-apPOL present, no DMSO). The fluorescence of each well was determined using a BioTek Synergy Neo fluorescence plate reader using excitation and emission wavelengths of 555 and 570 nm, respectively.\nIn the above, Min is the average of fluorescence emission of the negative controls (substrate only), Max the average fluorescence emission from the positive controls (enzyme + substrate), and Test the emission from the assays in the presence of compounds (enzyme + compound + substrates). […] […] The IC50 of each compound was determined using Equation (2): (2) IC50= Vmax/(1+ (I/IC50)^n)\nIn the above, n measures cooperativity, with n > 1 indicating synergistic binding of more than a single molecule of the compound.\nTo identify apPOL inhibitors we utilised our previously developed high-throughput DNA polymerase assay. The HT assay is based on a molecular beacon DNA template that forms a stem-loop with a Cy3 dye and the Black Hole Quencher on the 3′ and 5′ ends of the DNA, respectively. DNA polymerase activity extends an annealed primer through the stem region, displacing the fluorophore from the quencher, thereby increasing its fluorescence (Figure 1(A)). The assay accurately recapitulates the kinetic behaviour of apPOL, as measured through more conventional low-throughput gel-based assays. The Z′ factor for the assay described here was 0.9 across all plates (data not shown).\nFigure 1. High-throughput screening. (A) The fluorescent-based DNA polymerase assay used to screen the compound libraries. The DNA template strand is a hairpin loop with a primer annealed to the loop. The 3’ end of the primer is 11 bases away from the 6 bp duplex. Strand displacement activity of the DNA polymerase separates the Cy3 dye from the Black hole quencher leading to an increase in fluorescent signal. (B) The high-throughput assay workflow. The DNA polymerase is incubated with […] compound for 10 min prior to addition of the hairpin substrate. The reaction is quenched at 3 different time points and the fluorescent signal is measured and % inhibition is determined using the provided equation.",
  "data": [
    {"smiles": "O=C(Cn1ccc2c(=O)[nH]ccc21)Nc1ccccc1Cl", "note": "[Molecule 19, O=C(Cn1ccc2c1cc[nH]c2=O)Nc1ccccc1Cl]", "values": [
      {"measurement": "% inhibition Apo pol 10'", "setting": "DRC-1; concentration 2.5; 10'", "result": 11.0481, "unit": "%"},
      {"measurement": "% inhibition Apol 90'", "setting": "DRC-1; concentration 2.5; 90'", "result": 3.184, "unit": "%"},
      {"measurement": "% inhibition apPOL 180'", "setting": "DRC-1; concentration 2.5; 180'", "result": -2.947, "unit": "%"},
      {"measurement": "% inhibition Apo pol 10'", "setting": "DRC-1; concentration 5; 10'", "result": 18.9507, "unit": "%"},
      {"measurement": "% inhibition Apol 90'", "setting": "DRC-1; concentration 5; 90'", "result": 7.548, "unit": "%"},
      {"measurement": "% inhibition apPOL 180'", "setting": "DRC-1; concentration 5; 180'", "result": -2.382, "unit": "%"},
      {"measurement": "% inhibition Apo pol 10'", "setting": "DRC-1; concentration 10; 10'", "result": 79.9443, "unit": "%"},
      {"measurement": "% inhibition Apol 90'", "setting": "DRC-1; concentration 10; 90'", "result": 71.2049, "unit": "%"},
      {"measurement": "% inhibition apPOL 180'", "setting": "DRC-1; concentration 10; 180'", "result": 56.5053, "unit": "%"},
      {"measurement": "% inhibition Apo pol 10'", "setting": "DRC-1; concentration 20; 10'", "result": 88.2896, "unit": "%"},
      {"measurement": "% inhibition Apol 90'", "setting": "DRC-1; concentration 20; 90'", "result": 90.2431, "unit": "%"},
      {"measurement": "% inhibition apPOL 180'", "setting": "DRC-1; concentration 20; 180'", "result": 88.4548, "unit": "%"},
      {"measurement": "% inhibition Apo pol 10'", "setting": "DRC-1; concentration 40; 10'", "result": 86.4384, "unit": "%"},
      {"measurement": "% inhibition Apol 90'", "setting": "DRC-1; concentration 40; 90'", "result": 91.2458, "unit": "%"},
      {"measurement": "% inhibition apPOL 180'", "setting": "DRC-1; concentration 40; 180'", "result": 93.0665, "unit": "%"},
      {"measurement": "% inhibition Apo pol 10'", "setting": "DRC-1; concentration 80 (unit not given); 10'", "result": 78.354, "unit": "%"},
      {"measurement": "% inhibition Apol 90'", "setting": "DRC-1; concentration 80; 90'", "result": 86.1065, "unit": "%"},
      {"measurement": "% inhibition apPOL 180'", "setting": "DRC-1; concentration 80; 180'", "result": 89.6716, "unit": "%"},
      {"measurement": "% inhibition Apol 40'", "setting": "DRC-2; 40'; concentration 10", "result": 65, "unit": "%"},
      {"measurement": "% inhibition Apol 40'", "setting": "DRC-2; 40'; concentration 40", "result": 65, "unit": "%"},
      {"measurement": "% inhibition apPOL 180'", "setting": "DRC-2; 180'; concentration 20", "result": 77, "unit": "%"},
      {"measurement": "% inhibition apPOL 180'", "setting": "DRC-2; 180'; concentration 40", "result": 77, "unit": "%"},
      {"measurement": "% inhibition Apo pol 5'", "setting": "DRC-2; concentration 2.5; 5'", "result": 15, "unit": "%"},
      {"measurement": "% inhibition Apol 40'", "setting": "DRC-2; concentration 2.5; 40'", "result": 14, "unit": "%"},
      {"measurement": "% inhibition ApPOL 90'", "setting": "DRC-2; concentration 2.5; 90'", "result": 9, "unit": "%"},
      {"measurement": "% inhibition apPOL 180'", "setting": "DRC-2; concentration 2.5; 180'", "result": -0.373, "unit": "%"},
      {"measurement": "% inhibition Apo pol 5'", "setting": "DRC-2; concentration 5; 5'", "result": 30, "unit": "%"},
      {"measurement": "% inhibition Apol 40'", "setting": "DRC-2; concentration 5; 40'", "result": 36, "unit": "%"},
      {"measurement": "% inhibition ApPOL 90'", "setting": "DRC-2; concentration 5; 90'", "result": 32, "unit": "%"},
      {"measurement": "% inhibition apPOL 180'", "setting": "DRC-2; concentration 5; 180'", "result": 18, "unit": "%"},
      {"measurement": "% inhibition Apo pol 5'", "setting": "DRC-2; concentration 10; 5'", "result": 48, "unit": "%"},
      {"measurement": "% inhibition Apol 40'", "setting": "DRC-2; concentration 10; 40'", "result": 65, "unit": "%"},
      {"measurement": "% inhibition ApPOL 90'", "setting": "DRC-2; concentration 10; 90'", "result": 67, "unit": "%"},
      {"measurement": "% inhibition apPOL 180'", "setting": "DRC-2; concentration 10; 180'", "result": 63, "unit": "%"},
      {"measurement": "% inhibition Apo pol 5'", "setting": "DRC-2; concentration 20; 5'", "result": 44, "unit": "%"},
      {"measurement": "% inhibition Apol 40'", "setting": "DRC-2; concentration 20; 40'", "result": 68, "unit": "%"},
      {"measurement": "% inhibition ApPOL 90'", "setting": "DRC-2; concentration 20; 90'", "result": 73, "unit": "%"},
      {"measurement": "% inhibition apPOL 180'", "setting": "DRC-2; concentration 20; 180'", "result": 77, "unit": "%"},
      {"measurement": "% inhibition Apo pol 5'", "setting": "DRC-2; concentration 40; 5'", "result": 37, "unit": "%"},
      {"measurement": "% inhibition Apol 40'", "setting": "DRC-2; concentration 40; 40'", "result": 65, "unit": "%"},
      {"measurement": "% inhibition ApPOL 90'", "setting": "DRC-2; concentration 40; 90'", "result": 70, "unit": "%"},
      {"measurement": "% inhibition apPOL 180'", "setting": "DRC-2; concentration 40; 180'", "result": 77, "unit": "%"},
      {"measurement": "% inhibition Apo pol 5'", "setting": "DRC-2; concentration 80; 5'", "result": 28, "unit": "%"},
      {"measurement": "% inhibition Apol 40'", "setting": "DRC-2; concentration 80; 40'", "result": 56, "unit": "%"},
      {"measurement": "% inhibition ApPOL 90'", "setting": "DRC-2; concentration 80; 90'", "result": 64, "unit": "%"},
      {"measurement": "% inhibition apPOL 180'", "setting": "DRC-2; concentration 80; 180'", "result": 72, "unit": "%"},
      {"measurement": "DNA Pol", "setting": "primary screen value of the 186 hits; unit not given; 90 min, 10 µM", "result": 82},
      {"measurement": "DNA Pol", "setting": "primary screen value; head prints only 'DNA Pol'; 90 min, 10 µM", "result": 82}
    ]}
  ]
}
